# Source: patent US12577234B2, “Antagonists of the muscarinic acetylcholine receptor M4” (Vanderbilt University, priority 2017, dated 2026)
# pIC50: −log10 of the molar value.
# Target: T1, human mAChR M4 (Homo sapiens, UniProt P08173)
# T1 construct: expressed in transfected cells; host or cells: CHO-K1 (ATCC), stably co-expressing chimeric G protein Gqi5
# T1 sequence (P08173 1-479): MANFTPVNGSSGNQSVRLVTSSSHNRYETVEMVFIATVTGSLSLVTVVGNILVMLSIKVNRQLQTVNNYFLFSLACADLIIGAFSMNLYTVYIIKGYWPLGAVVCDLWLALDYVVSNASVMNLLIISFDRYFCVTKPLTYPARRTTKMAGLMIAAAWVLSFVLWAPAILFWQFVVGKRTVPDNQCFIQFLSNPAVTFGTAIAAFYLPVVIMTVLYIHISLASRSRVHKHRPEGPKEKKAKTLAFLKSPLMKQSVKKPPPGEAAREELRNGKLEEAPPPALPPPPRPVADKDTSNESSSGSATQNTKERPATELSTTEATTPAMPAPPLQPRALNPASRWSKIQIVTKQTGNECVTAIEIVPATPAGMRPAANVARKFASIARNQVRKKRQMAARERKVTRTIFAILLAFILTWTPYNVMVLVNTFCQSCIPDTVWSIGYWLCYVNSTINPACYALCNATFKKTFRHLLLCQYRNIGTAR
# Assay: mAChR M4 cell-based functional assay (calcium mobilization, EC80 acetylcholine), human M4
# Conditions: Table 10; for pIC50: M4/Gqi5/CHO-K1 cells, decrease of EC80 acetylcholine response
# Method in brief: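 CHO-K1 cells stably expressing human M4 with chimeric Gqi5; intracellular calcium rise read on FDSS as fluorescence static ratio at 1 Hz. Compounds in 10-point 1:3 dilution series; IC50 taken as concentration-dependent decrease of the EC80 acetylcholine response, four-parameter logistic fit.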
Structure (SMILES),Human M4 Emin,pIC50,IC50 (μM)
"Fc1ccc(Cl)c(-c2ccc(N[C@H]3C[C@@H]4CN(Cc5cccnc5)C[C@@H]4C3)nn2)c1 [Compound 161, (3aR,5s,6aS)-N-[6-(2-chloro-5-fluoro-phenyl)pyridazin-3-yl]-2-(3-pyridylmethyl)-3,3a,4,5,6,6a-hexahydro-1H-cyclopenta[c]pyrrol-5-amine]",5%,7.27,
"Fc1ccc(Cl)c(-c2ccc(N[C@H]3C[C@@H]4CN(Cc5ccncc5)C[C@@H]4C3)nn2)c1 [Compound 162, (3aR,5s,6aS)-N-[6-(2-chloro-5-fluoro-phenyl)pyridazin-3-yl]-2-(4-pyridylmethyl)-3,3a,4,5,6,6a-hexahydro-1H-cyclopenta[c]pyrrol-5-amine]",3%,8.34,
"Fc1ccc(CN2C[C@H]3C[C@H](Nc4ccc(-c5cc(F)ccc5Cl)nn4)C[C@H]3C2)cc1 [Compound 163, (3aR,5s,6aS)-N-[6-(2-chloro-5-fluoro-phenyl)pyridazin-3-yl]-2-[(4-fluorophenyl)methyl]-3,3a,4,5,6,6a-hexahydro-1H-cyclopenta[c]pyrrol-5-amine]",3%,7.71,
"Fc1ccc(Cl)c(-c2ccc(N[C@H]3C[C@@H]4CN(Cc5cnc6ccccc6c5)C[C@@H]4C3)nn2)c1 [Compound 164, (3aR,5s,6aS)-N-[6-(2-chloro-5-fluoro-phenyl)pyridazin-3-yl]-2-(3-quinolylmethyl)-3,3a,4,5,6,6a-hexahydro-1H-cyclopenta[c]pyrrol-5-amine]",3%,7.19,
"Fc1ccc(Cl)c(-c2ccc(N[C@H]3C[C@@H]4CN(Cc5cn6ccccc6n5)C[C@@H]4C3)nn2)c1 [Compound 165, (3aR,5s,6aS)-N-[6-(2-chloro-5-fluoro-phenyl)pyridazin-3-yl]-2-(imidazo[1,2-a]pyridin-2-ylmethyl)-3,3a,4,5,6,6a-hexahydro-1H-cyclopenta[c]pyrrol-5-amine]",3%,7.16,
"Fc1ccc(Cl)c(-c2ccc(N[C@H]3C[C@@H]4CN(Cc5ccc6c(c5)OCO6)C[C@@H]4C3)nn2)c1 [Compound 166, (3aR,5s,6a5)-2-(1,3-benzodioxol-5-ylmethyl)-N-[6-(2-chloro-5-fluoro-phenyl)pyridazin-3-yl]-3,3a,4,5,6,6a-hexahydro-1H-cyclopenta[c]pyrrol-5-amine]",2%,8.21,
"Fc1ccc(Cl)c(-c2ccc(N[C@H]3C[C@@H]4CN(Cc5cccc6c5OCO6)C[C@@H]4C3)nn2)c1 [Compound 167, (3aR,5s,6aS)-2-(1,3-benzodioxol-4-ylmethyl)-N-[6-(2-chloro-5-fluoro-phenyl)pyridazin-3-yl]-3,3a,4,5,6,6a-hexahydro-1H-cyclopenta[c]pyrrol-5-amine]",2%,7.41,
"COc1ccc(CN2C[C@H]3C[C@H](Nc4ccc(-c5cc(F)ccc5Cl)nn4)C[C@H]3C2)cc1 [Compound 168, (3aR,5s,6aS)-N-[6-(2-chloro-5-fluoro-phenyl)pyridazin-3-yl]-2-[(4-methoxyphenyl)methyl]-3,3a,4,5,6,6a-hexahydro-1H-cyclopenta[c]pyrrol-5-amine]",2%,7.94,
"Fc1ccc(Cl)c(-c2ccc(N[C@H]3C[C@@H]4CN(CC5CC5)C[C@@H]4C3)nn2)c1 [Compound 169, (3aR,5s,6aS)-N-[6-(2-chloro-5-fluoro-phenyl)pyridazin-3-yl]-2-(cyclopropylmethyl)-3,3a,4,5,6,6a-hexahydro-1H-cyclopenta[c]pyrrol-5-amine]",3%,7.73,
"Fc1ccc(Cl)c(-c2ccc(N[C@H]3C[C@@H]4CN(Cc5cnccn5)C[C@@H]4C3)nn2)c1 [Compound 170, (3aR,5s,6aS)-N-[6-(2-chloro-5-fluoro-phenyl)pyridazin-3-yl]-2-(pyrazin-2-ylmethyl)-3,3a,4,5,6,6a-hexahydro-1H-cyclopenta[c]pyrrol-5-amine]",5%,7.27,
"CC1(CN2C[C@H]3C[C@H](Nc4ccc(-c5cc(F)ccc5Cl)nn4)C[C@H]3C2)COC1 [Compound 171, (3aR,5s,6aS)-N-[6-(2-chloro-5-fluoro-phenyl)pyridazin-3-yl]-2-[(3-methyloxetan-3-yl)methyl]-3,3a,4,5,6,6a-hexahydro-1H-cyclopenta[c]pyrrol-5-amine]",4%,7.07,
"CS(=O)(=O)Nc1ccc(CN2C[C@H]3C[C@H](Nc4ccc(-c5cc(F)ccc5Cl)nn4)C[C@H]3C2)cc1 [Compound 172, N-[4-[[(3aR,5s,6aS)-5-[[6-(2-chloro-5-fluoro-phenyl)pyridazin-3-yl]amino]-3,3a,4,5,6,6a-hexahydro-1H-cyclopenta[c]pyrrol-2-yl]methyl]phenyl]methanesulfonamide]",3%,7.37,
"CC1(C)CC(CN2C[C@H]3C[C@H](Nc4ccc(-c5cc(F)ccc5Cl)nn4)C[C@H]3C2)CCO1 (stereo partly drawn) [Compound 173, (3aR,5s,6aS)-N-[6-(2-chloro-5-fluoro-phenyl)pyridazin-3-yl]-2-[(2,2-dimethyltetrahydropyran-4-yl)methyl]-3,3a,4,5,6,6a-hexahydro-1H-cyclopenta[c]pyrrol-5-amine]",3%,8.48,
"COc1ccccc1CN1C[C@H]2C[C@H](Nc3ccc(-c4cc(F)ccc4Cl)nn3)C[C@H]2C1 [Compound 174, (3aR,5s,6aS)-N-[6-(2-chloro-5-fluoro-phenyl)pyridazin-3-yl]-2-[(2-methoxyphenyl)methyl]-3,3a,4,5,6,6a-hexahydro-1H-cyclopenta[c]pyrrol-5-amine]",4%,6.68,
"Fc1cccc(CN2C[C@H]3C[C@H](Nc4ccc(-c5cc(F)ccc5Cl)nn4)C[C@H]3C2)c1 [Compound 175, (3aR,5s,6aS)-N-[6-(2-chloro-5-fluoro-phenyl)pyridazin-3-yl]-2-[(3-fluorophenyl)methyl]-3,3a,4,5,6,6a-hexahydro-1H-cyclopenta[c]pyrrol-5-amine]",3%,7.53,
"Fc1ccc(Cl)c(-c2ccc(N[C@H]3C[C@@H]4CN(Cc5ccco5)C[C@@H]4C3)nn2)c1 [Compound 176, (3aR,5s,6aS)-N-[6-(2-chloro-5-fluoro-phenyl)pyridazin-3-yl]-2-(2-furylmethyl)-3,3a,4,5,6,6a-hexahydro-1H-cyclopenta[c]pyrrol-5-amine]",3%,7.58,
"CC(C)CN1C[C@H]2C[C@H](Nc3ccc(-c4cc(F)ccc4Cl)nn3)C[C@H]2C1 [Compound 177, (3aR,5s,6aS)-N-[6-(2-chloro-5-fluoro-phenyl)pyridazin-3-yl]-2-isobutyl-3,3a,4,5,6,6a-hexahydro-1H-cyclopenta[c]pyrrol-5-amine]",3%,8.30,
"Fc1ccc(Cl)c(-c2ccc(N[C@H]3C[C@@H]4CN(Cc5ccoc5)C[C@@H]4C3)nn2)c1 [Compound 178, (3aR,5s,6aS)-N-[6-(2-chloro-5-fluoro-phenyl)pyridazin-3-yl]-2-(3-furylmethyl)-3,3a,4,5,6,6a-hexahydro-1H-cyclopenta[c]pyrrol-5-amine]",3%,7.35,
"Clc1ccc(N[C@H]2C[C@@H]3CN(CC4CCOCC4)C[C@@H]3C2)nn1 [Compound 179, (3aR,5s,6aS)-N-(6-chloropyridazin-3-yl)-2-(tetrahydropyran-4-ylmethyl)-3,3a,4,5,6,6a-hexahydro-1H-cyclopenta[c]pyrrol-5-amine]",29%,,> 10 µM
"CC(=O)Nc1ccc(-c2ccc(N[C@H]3C[C@@H]4CN(CC5CCOCC5)C[C@@H]4C3)nn2)cc1 [Compound 180, N-[4-[6-[[(3aR,5s,6aS)-2-(tetrahydropyran-4-ylmethyl)-3,3a,4,5,6,6a-hexahydro-1H-cyclopenta[c]pyrrol-5-yl]amino]pyridazin-3-yl]phenyl]acetamide]",8%,8.93,
"c1cnc2ccc(-c3ccc(N[C@H]4C[C@@H]5CN(CC6CCOCC6)C[C@@H]5C4)nn3)cc2c1 [Compound 181, (3aR,5s,6aS)-N-[6-(6-quinolyl)pyridazin-3-yl]-2-(tetrahydropyran-4-ylmethyl)-3,3a,4,5,6,6a-hexahydro-1H-cyclopenta[c]pyrrol-5-amine]",4%,8.85,
"c1cc2c(cc1-c1ccc(N[C@H]3C[C@@H]4CN(CC5CCOCC5)C[C@@H]4C3)nn1)OCO2 [Compound 182, (3aR,5s,6aS)-N-[6-(1,3-benzodioxol-5-yl)pyridazin-3-yl]-2-(tetrahydropyran-4-ylmethyl)-3,3a,4,5,6,6a-hexahydro-1H-cyclopenta[c]pyrrol-5-amine]",4%,8.73,
"c1cn2cc(-c3ccc(N[C@H]4C[C@@H]5CN(CC6CCOCC6)C[C@@H]5C4)nn3)ccc2n1 [Compound 183, (3aR,5s,6aS)-N-(6-imidazo[1,2-a]pyridin-6-ylpyridazin-3-yl)-2-(tetrahydropyran-4-ylmethyl)-3,3a,4,5,6,6a-hexahydro-1H-cyclopenta[c]pyrrol-5-amine]",7%,8.97,
